In patent US20220016079A1, “COMBINATION TREATMENT OF HIV INFECTIONS” (priority 2018, published 2022):

Columns and labels:
[1] = tested on: 2D10 cells; assay: Cytotoxicity by LDH assay in 2D10 cells; format: cell-based; conditions: 0 to 20 μM, 48 h
Protocol: Drug titration was conducted.
For analysis of cell viability, cells (100,000 cells/100 μL) were treated in triplicate for 48 h with increasing concentrations of Debio-1143 or other known LRAs (0 to 20 μM). Cellular cytotoxicity was analyzed by Lactate dehydrogenase (LDH) assay. LDH is an oxidoreductase enzyme that catalyzes the interconversion of pyruvate and lactate. Cells release LDH into the bloodstream after tissue damage or red blood cell hemolysis. Since LDH is a fairly stable enzyme, it has been widely used to evaluate the presence of damage and toxicity of tissue and cells. In this particular, LDH reduces NAD to NADH, which is specifically detected by colorimetric (490 nm) assay.

[2] = tested on: latent HIV-1 in resting CD4+ T cells; assay: Ex vivo HIV-1 reactivation in human resting CD4+ T cells from ART-treated HIV-1-infected humanized BLT mice (HIV RNA in supernatant); format: cell-based
Protocol: The efficacy of IAPa, ICI or IAPa/ICI combinations in reversing HIV-1 latency was tested in resting CD4+ T cells derived from ART-treated HIV-1-infected humanized BLT mice.
Human resting CD4+ T cells from ten mice were isolated from blood, thymic organoid, lung, spleen, bone marrow, lymph nodes and liver. Isolated human resting CD4+ T cells were pooled, counted, split and treated in duplicate for 48 h with different IAPa (1 μM) or ICI (10 μg/ml) in monotherapy, or the IAPa/ICI combinations. Amounts of virions released from cells were quantified at the indicated time points by quantifying HIV RNA levels (HIV RNA copies/mL) in supernatant of cell culture using one-step reverse transcriptase quantitative real-time PCR (ABI custom TaqMan Assays-by-Design) according to the manufacturer's instructions. Primers were 5-[…]-3 and 5-[…]-3, and MGB probe 5-FAM-[…]-Q-3, where FAM is 6-carboxyfluorescein.
The experiment was carried out using the same agents as described above for Example 8.1 (with the exception that no birinapant was used).

[3] = molecular target: T1, BIRC2 (Homo sapiens, UniProt Q13490); assay: BIRC2 (cIAP1) degradation by Western blotting; format: cell-based
T1 construct: endogenous in cells; host or cells: 2D10, 293T and CD4+ T cells
T1 sequence (Q13490 whole entry): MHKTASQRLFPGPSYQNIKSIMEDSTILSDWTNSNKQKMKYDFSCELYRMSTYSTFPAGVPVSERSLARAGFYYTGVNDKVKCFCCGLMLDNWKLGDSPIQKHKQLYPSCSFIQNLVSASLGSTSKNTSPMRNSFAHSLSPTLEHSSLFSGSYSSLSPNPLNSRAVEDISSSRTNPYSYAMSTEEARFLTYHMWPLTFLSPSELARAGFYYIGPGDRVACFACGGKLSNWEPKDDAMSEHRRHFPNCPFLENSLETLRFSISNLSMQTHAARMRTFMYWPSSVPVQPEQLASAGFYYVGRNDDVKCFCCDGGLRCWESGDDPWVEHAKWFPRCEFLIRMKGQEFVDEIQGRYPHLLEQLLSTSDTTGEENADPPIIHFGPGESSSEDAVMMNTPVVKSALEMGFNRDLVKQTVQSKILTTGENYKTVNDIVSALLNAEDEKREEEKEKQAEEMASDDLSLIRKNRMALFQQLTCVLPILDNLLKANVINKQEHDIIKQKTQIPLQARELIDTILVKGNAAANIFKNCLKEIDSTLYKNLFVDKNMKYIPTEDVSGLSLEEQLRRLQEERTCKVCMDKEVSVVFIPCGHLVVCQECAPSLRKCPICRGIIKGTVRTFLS
Protocol: It was investigated whether Debio-1143 reverses HIV-1 latency by acting on the NF-κB pathway. Canonical and non-canonical NF-κB signaling pathways play an important role in the reactivation of latent HIV-1, implicating its regulation as an important therapeutic strategy for latency reversal.
Method: 2D10 (A) or 293T (B) and CD4+ T cells (C) cells were treated with DMSO, Debio-1143 (1 μM) and TNFα (10 ng/ml) for the indicated times and analyzed by Western blotting for BIRC2 and IkBα protein expression using antibodies specifically detecting human BIRC2, human IkBα, or human CypA, such as commercially available (e.g. from R&D Systems, Cell Signaling, Santa Cruz Biotechnology, or other sources).

[4] = tested on: HIV-1 (JR-CSF); assay: Efficacy study in HIV-1 infected humanized BLT mice: HIV-1 loads in blood (qPCR); format: in vivo; conditions: 4 weeks of treatment starting 12 weeks after infection; n=8 per group
Source text: Methods: Humanized BLT mice were generated by implanting human fetal liver and thymus tissues under the kidney capsule of an immunodeficient NOD scid gamma (NSG=NOD.Cg-Prkdc^scidII12rg^tm1Wjl/SzJ) mouse, followed by an administration of autologous human fetal liver CD34+ cells (human hematopoietic stem cells). In BLT mice, T cell education occured in the human thymic tissue, resulting in complete systemic reconstitution of all major human hematopoietic lineages including T, B, monocyte/macrophage, dendritic, and natural killer cells. The extensive systemic and genital mucosal reconstitution with human lymphoid cells rendered female humanized BLT mice susceptible to both vaginal and rectal HIV infection. […]
R5 HIV (JR-CSF) was produced by 293T transfection and quantified by p24 ELISA. Humanized mice were infected with JR-CSF (200 ng of p24) and viral replication quantified weekly by qPCR for up to 16 weeks.
Methods: Thirty-two BLT mice were infected with HIV-1. 12 weeks later mice were split in 4 groups (n=8), treated with various regimen and analyzed for 6 weeks. […] Body weight, HIV-1 loads and PD-1 expression on CD8+ T cells were analyzed once weekly. […] The remaining mice (4×5=20) were sacrificed 2 weeks after treatment completion and viral RNA levels in organ reservoirs (spleen, thymic organoid, lung, spleen, lymph nodes and liver) were quantified by qPCR.

In the case of CN[C@@H](C)C(=O)N[C@H]1CN(C(=O)CC(C)C)CC[C@H]2CC[C@@H](C(=O)NC(c3ccccc3)c3ccccc3)N2C1=O [Debio 1143, (5S,8S,10aR)-N-benzhydryl-5-((S)-2-(methylamino)propanamido)-3-(3-methylbutanoyl)-6-oxodecahydropyrrolo[1,2-a][1,5]diazocine-8-carboxamide], the “cytotoxicity (LDH assay)” value [1] is reported as “did not exhibit any cytotoxicity”, the “latency reversal class (HIV RNA copies/ml in supernatant)” value (“latency reversal class” for short) ([2]; IAPa 1 μM monotherapy (0.1% DMSO, no ICI), 48 h) is reported as 2 (Between 2501 and 5000 RNA copies/ml were classified as “2”) and the “latency reversal class” value ([2]; IAPa 1 μM with Control IgG1, 48 h) is reported as 2 (Between 2501 and 5000 RNA copies/ml were classified as “2”). For the same molecule, the “latency reversal class” value ([2]; IAPa 1 μM with Control IgG2, 48 h) was 2 (Between 2501 and 5000 RNA copies/ml were classified as “2”), the “time of BIRC2 degradation” value ([3]; 1 μM, 2D10 and 293T cells) was less than 15 min and the BIRC2 degradation ([3]; CD4+ T cells) was “dose-dependent”. For the same molecule, the “HIV titers in blood” value [4] was “increased viral titers”.
